# Measurements from ChEMBL document CHEMBL1128533, “Synthesis and ligand binding study of 3 beta-(4'-substituted phenyl)-2 beta-(heterocyclic)tropanes” (J Med Chem, 1995).
# pIC50: −log10 of the molar value.
# Experiments:
# [1] = target: Sodium-dependent dopamine transporter (Rattus norvegicus, UniProt P23977); assay: Binding affinity towards dopamine transporter was determined using DA[3H]WIN-35428 as radioligand
# [2] = target: Norepinephrine transporter (Rattus norvegicus, UniProt Q9WTR4); assay: Binding affinity towards Norepinephrine transporter was determined using NE[3H]Nisoxetine as radioligand
# Chain of Norepinephrine transporter (Q9WTR4 whole entry): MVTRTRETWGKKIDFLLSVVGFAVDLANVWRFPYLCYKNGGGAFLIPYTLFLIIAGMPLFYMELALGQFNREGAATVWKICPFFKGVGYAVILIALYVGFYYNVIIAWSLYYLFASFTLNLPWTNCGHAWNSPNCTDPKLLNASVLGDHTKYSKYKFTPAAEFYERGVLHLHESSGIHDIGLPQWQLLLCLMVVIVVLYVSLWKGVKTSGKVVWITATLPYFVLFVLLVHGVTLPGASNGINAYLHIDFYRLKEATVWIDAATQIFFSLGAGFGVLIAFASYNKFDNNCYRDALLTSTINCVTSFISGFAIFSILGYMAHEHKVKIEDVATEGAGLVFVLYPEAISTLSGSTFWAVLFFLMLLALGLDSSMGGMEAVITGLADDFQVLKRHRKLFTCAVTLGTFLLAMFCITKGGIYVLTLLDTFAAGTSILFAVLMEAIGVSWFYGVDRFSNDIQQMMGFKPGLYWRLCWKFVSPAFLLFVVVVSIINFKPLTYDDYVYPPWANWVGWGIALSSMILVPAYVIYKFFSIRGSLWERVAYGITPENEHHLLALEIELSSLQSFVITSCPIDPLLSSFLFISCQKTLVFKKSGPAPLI
# [3] = Ratio of IC50 of norepinephrine to dopamine
# [4] = target: Monoamine transporters; serotonin & dopamine (Homo sapiens) (UniProt P31645+Q01959); assay: Ratio of IC50 of 5-hydroxy tryptamine to dopamine; assay type: protein assay
# Chain of Monoamine transporters; serotonin & dopamine (Homo sapiens) (P31645 whole entry, looked up): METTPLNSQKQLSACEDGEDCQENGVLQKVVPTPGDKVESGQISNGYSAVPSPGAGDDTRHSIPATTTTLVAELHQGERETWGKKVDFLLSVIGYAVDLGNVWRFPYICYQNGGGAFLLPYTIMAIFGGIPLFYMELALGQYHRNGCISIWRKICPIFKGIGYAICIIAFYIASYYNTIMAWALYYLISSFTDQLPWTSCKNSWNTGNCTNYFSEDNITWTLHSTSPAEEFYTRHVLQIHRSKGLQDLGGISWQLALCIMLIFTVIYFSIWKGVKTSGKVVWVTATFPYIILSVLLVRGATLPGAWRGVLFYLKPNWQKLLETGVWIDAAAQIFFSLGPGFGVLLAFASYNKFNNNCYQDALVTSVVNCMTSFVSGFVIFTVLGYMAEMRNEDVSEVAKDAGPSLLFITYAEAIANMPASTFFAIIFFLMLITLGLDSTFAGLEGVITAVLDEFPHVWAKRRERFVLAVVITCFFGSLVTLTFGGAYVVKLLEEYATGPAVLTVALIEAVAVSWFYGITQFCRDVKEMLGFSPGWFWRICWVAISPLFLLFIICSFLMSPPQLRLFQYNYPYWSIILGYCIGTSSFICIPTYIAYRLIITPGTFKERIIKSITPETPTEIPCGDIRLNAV
# Chain of Monoamine transporters; serotonin & dopamine (Homo sapiens) (Q01959 whole entry, looked up): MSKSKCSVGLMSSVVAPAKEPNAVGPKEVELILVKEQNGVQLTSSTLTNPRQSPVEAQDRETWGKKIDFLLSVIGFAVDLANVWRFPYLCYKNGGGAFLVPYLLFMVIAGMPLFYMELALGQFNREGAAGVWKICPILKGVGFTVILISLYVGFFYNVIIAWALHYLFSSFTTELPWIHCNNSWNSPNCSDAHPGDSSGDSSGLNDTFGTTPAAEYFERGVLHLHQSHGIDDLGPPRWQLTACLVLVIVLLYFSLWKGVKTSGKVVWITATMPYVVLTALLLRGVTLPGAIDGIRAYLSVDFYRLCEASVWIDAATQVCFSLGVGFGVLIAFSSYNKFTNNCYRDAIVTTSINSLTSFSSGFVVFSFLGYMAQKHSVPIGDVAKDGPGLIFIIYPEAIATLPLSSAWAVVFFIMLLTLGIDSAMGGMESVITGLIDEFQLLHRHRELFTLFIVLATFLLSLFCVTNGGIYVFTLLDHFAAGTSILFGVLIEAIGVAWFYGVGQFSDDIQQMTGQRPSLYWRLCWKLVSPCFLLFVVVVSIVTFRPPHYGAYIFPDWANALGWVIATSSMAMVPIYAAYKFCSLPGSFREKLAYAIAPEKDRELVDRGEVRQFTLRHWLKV
# [5] = target: Sodium-dependent serotonin transporter (Rattus norvegicus, UniProt P31652); assay: Binding affinity towards Serotonin transporter was determined using 5-HT [3H]paroxetine as radioligand
# Chain of Sodium-dependent serotonin transporter (P31652 whole entry): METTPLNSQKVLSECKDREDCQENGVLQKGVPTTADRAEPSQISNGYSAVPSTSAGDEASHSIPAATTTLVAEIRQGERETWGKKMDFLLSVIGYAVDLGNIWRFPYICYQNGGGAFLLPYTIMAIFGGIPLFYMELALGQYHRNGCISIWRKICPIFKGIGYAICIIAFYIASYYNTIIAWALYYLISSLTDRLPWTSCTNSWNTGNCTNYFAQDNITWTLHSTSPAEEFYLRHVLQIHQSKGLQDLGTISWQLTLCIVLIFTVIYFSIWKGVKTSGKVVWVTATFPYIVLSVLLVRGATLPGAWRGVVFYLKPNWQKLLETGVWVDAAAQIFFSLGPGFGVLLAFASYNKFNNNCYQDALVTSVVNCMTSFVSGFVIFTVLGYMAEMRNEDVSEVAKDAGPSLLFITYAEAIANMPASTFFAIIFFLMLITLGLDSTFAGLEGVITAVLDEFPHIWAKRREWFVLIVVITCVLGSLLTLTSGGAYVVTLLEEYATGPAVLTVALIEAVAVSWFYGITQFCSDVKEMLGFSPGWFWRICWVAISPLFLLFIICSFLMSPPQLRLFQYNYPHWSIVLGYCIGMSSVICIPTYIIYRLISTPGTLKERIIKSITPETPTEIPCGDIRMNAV
# Chain of Sodium-dependent dopamine transporter (P23977 whole entry): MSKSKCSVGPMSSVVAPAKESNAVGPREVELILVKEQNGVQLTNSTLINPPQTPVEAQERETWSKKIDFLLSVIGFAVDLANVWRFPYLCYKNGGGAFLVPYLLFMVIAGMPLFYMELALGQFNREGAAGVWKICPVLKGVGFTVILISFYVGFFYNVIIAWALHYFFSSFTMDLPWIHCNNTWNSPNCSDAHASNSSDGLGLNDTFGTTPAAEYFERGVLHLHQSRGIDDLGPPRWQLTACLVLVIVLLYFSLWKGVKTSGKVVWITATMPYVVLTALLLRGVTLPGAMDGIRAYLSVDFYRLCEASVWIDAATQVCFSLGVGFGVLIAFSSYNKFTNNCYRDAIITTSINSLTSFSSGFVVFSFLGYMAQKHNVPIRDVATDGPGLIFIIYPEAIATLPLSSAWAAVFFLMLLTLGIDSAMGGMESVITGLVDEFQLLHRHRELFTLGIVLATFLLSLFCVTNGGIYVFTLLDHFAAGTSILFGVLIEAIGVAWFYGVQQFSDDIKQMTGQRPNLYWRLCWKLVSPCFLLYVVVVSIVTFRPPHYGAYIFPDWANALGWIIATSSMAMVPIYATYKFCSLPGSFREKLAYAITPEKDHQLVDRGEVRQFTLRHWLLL
SMILES,pIC50 [1],pIC50 [2],Ratio [3],Ratio [4],pIC50 [5]
CN1C2CCC1C(c1nc(-c3ccccc3)no1)C(c1ccc(Cl)cc1)C2 (centres undefined),8.79,6.61,151,120,
CN1C2CC[C@@H]1C[C@H](c1ccc(Cl)cc1)C2c1cc(-c2ccccc2)no1 (some centres undefined),8.89,6.30,394,1890,5.62
CN1C2CCC1C(c1nnc(-c3ccccc3)o1)C(c1ccc(Cl)cc1)C2 (centres undefined),7.90,6.03,74,262,
CN1C2CCC1C(c1ncc(-c3ccccc3)o1)C(c1ccc(Cl)cc1)C2 (centres undefined),7.71,6.30,25,57,
CN1C2CCC1C(C(=O)Oc1ccccc1)C(c1ccc(Cl)cc1)C2 (centres undefined),,,1490,1180,
